Assay results published in patent US10118935B2, “Melampomagnolide B dimers” (priority 2014, dated 2018).
Where two headings read alike, the source gives them in different places.

Columns and labels:
HL-60(TB) = settings: for CC50: read-out: LC50
SW-620 [1] = system: SW-620
MDA-MB-435 [2] = system: MDA-MB-435
UACC-257 [3] = system: UACC-257
UACC-62 [4] = system: UACC-62
CAKI-1 [5] = system: CAKI-1
MDA-MB-435 [6] = assay: NCI 60 cell line five dose, Melanoma
UACC-257 [7] = assay: NCI 60 cell line five dose, Melanoma
UACC-62 [8] = assay: NCI 60 cell line five dose, Melanoma
SNB-75 = assay: NCI 60 cell line five dose, CNS Cancer
HCT-116 = assay: NCI 60 cell line five dose, Colon Cancer
SW-620 [9] = assay: NCI 60 cell line five dose, Colon Cancer
CAKI-1 [10] = assay: NCI 60 cell line five dose, Renal Cancer
RXF 393 = assay: NCI 60 cell line five dose, Renal Cancer
SN12C = assay: NCI 60 cell line five dose, Renal Cancer
BT-549 = assay: NCI 60 cell line five dose, Breast Cancer

C=C1C(=O)O[C@H]2[C@H]1CC/C(COC(=O)CCC(=O)NCCCCCCCCCNC(=O)CCC(=O)OC/C1=C/CC[C@@]3(C)O[C@H]3[C@H]3OC(=O)C(=C)[C@@H]3CC1)=C\CC[C@@]1(C)O[C@@H]21 [JVM 2-92, bis(((1aR,7aS,10aS,10bS,E)-1a-Methyl-8-methylene-9-oxo-1a,2,3,6,7,7a,8,9,10a,10b-decahydrooxireno[2′,3′:9,10]cyclodeca[1,2-b]furan-5-yl)methyl)4,4′-(nonane-1,9-diylbis(azanediyl))bis (4-oxobutanoate)]
CC50 (CCRF-CEM): > 100 µM
GI50 (HL-60(TB)): 0.44 µM
TGI (HL-60(TB)): 2.13 µM
CC50 (HL-60(TB)): > 100 µM
CC50 (RPMI-8226): > 100 µM
CC50 (HOP-92): 6.64 µM
CC50 (NCI-H226): 8.6 µM
CC50 (NCI-H23): 18.5 µM
CC50 (NCI-H460): 25.7 µM
CC50 (COLO 205): 8.15 µM
CC50 (HT29): 5.69 µM
CC50 (KM12): 50.2 µM
CC50 (SW-620 [1]): 6.14 µM
CC50 (SF-268): 42.4 µM
CC50 (SNB-19): > 100 µM
GI50 (SNB-19; SNB-19): 3.38 µM
TGI (SNB-19; SNB-19): 16.3 µM
CC50 (LOX IMVI): 4.06 µM
CC50 (M14): 8.05 µM
CC50 (MDA-MB-435 [2]): 7.25 µM
CC50 (SK-MEL-2): 8.13 µM
CC50 (UACC-257 [3]): 32 µM
CC50 (UACC-62 [4]): 8.44 µM
CC50 (OVCAR-3): 5.3 µM
CC50 (OVCAR-4): 8.06 µM
CC50 (OVCAR-5): 7.06 µM
CC50 (SK-OV-3): 49.1 µM
CC50 (786-0): 6.04 µM
CC50 (A498): 31.3 µM
CC50 (CAKI-1 [5]): 49.9 µM
CC50 (UO-31): 45.6 µM
CC50 (DU-145): 5.78 µM
GI50 (MDA-MB-435 [6]): 1.63 µM
TGI (MDA-MB-435 [6]): 3.44 µM
GI50 (UACC-257 [7]): 2.06 µM
TGI (UACC-257 [7]): 5.59 µM
GI50 (UACC-62 [8]): 1.69 µM
TGI (UACC-62 [8]): 3.78 µM
GI50 (SNB-75): 1.47 µM
TGI (SNB-75): 4.35 µM
GI50 (HCT-116): 0.86 µM
TGI (HCT-116): 2.18 µM
GI50 (SW-620 [9]): 0.54 µM
TGI (SW-620 [9]): 2.07 µM
GI50 (CAKI-1 [10]): 10.5 µM
TGI (CAKI-1 [10]): 22.8 µM
GI50 (RXF 393): 1.01 µM
TGI (RXF 393): 2.50 µM
GI50 (SN12C): 2.69 µM
TGI (SN12C): 10.3 µM
GI50 (BT-549): 0.66 µM
TGI (BT-549): 2.03 µM

C=C1C(=O)O[C@H]2[C@H]1CC/C(COC(=O)CCC(=O)NCCCCCCCCNC(=O)CCC(=O)OC/C1=C/CC[C@@]3(C)O[C@H]3[C@H]3OC(=O)C(=C)[C@@H]3CC1)=C\CC[C@@]1(C)O[C@@H]21 [JVM 2-87, bis(((1aR,7aS,10aS,10bS,E)-1a-Methyl-8-methylene-9-oxo-1a,2,3,6,7,7a,8,9,10a,1b-decahydrooxireno[2′,3′:9,10]cyclodeca[1,2-b]furan-5-yl)methyl)4,4′-(octane-1,8-diylbis(azanediyl))bis(4-oxobutanoate)]
CC50 (CCRF-CEM): > 100 µM
GI50 (HL-60(TB)): 0.63 µM
TGI (HL-60(TB)): 3.12 µM
CC50 (HL-60(TB)): > 100 µM
CC50 (RPMI-8226): > 100 µM
CC50 (HOP-92): 6.77 µM
CC50 (NCI-H226): 15.7 µM
CC50 (NCI-H23): 42.6 µM
CC50 (NCI-H460): 66.2 µM
CC50 (COLO 205): 7.28 µM
CC50 (HT29): 5.92 µM
CC50 (KM12): 53.4 µM
CC50 (SW-620 [1]): 7.2 µM
CC50 (SF-268): 42.4 µM
CC50 (SNB-19): > 100 µM
GI50 (SNB-19; SNB-19): 4.15 µM
TGI (SNB-19; SNB-19): 19.9 µM
CC50 (LOX IMVI): 5.56 µM
CC50 (M14): 8.02 µM
CC50 (MDA-MB-435 [2]): 7.58 µM
CC50 (SK-MEL-2): 9.38 µM
CC50 (UACC-257 [3]): 16 µM
CC50 (UACC-62 [4]): 8.94 µM
CC50 (OVCAR-3): 5.31 µM
CC50 (OVCAR-4): 9.38 µM
CC50 (OVCAR-5): 7.31 µM
CC50 (SK-OV-3): 47.9 µM
CC50 (786-0): 6.67 µM
CC50 (A498): 49.6 µM
CC50 (CAKI-1 [5]): 80.3 µM
CC50 (UO-31): 54 µM
CC50 (DU-145): 6.81 µM
GI50 (MDA-MB-435 [6]): 1.8 µM
TGI (MDA-MB-435 [6]): 3.69 µM
GI50 (UACC-257 [7]): 1.76 µM
TGI (UACC-257 [7]): 4.48 µM
GI50 (UACC-62 [8]): 1.97 µM
TGI (UACC-62 [8]): 4.20 µM
GI50 (SNB-75): 2.02 µM
TGI (SNB-75): 7.25 µM
GI50 (HCT-116): 1.54 µM
TGI (HCT-116): 2.88 µM
GI50 (SW-620 [9]): 1.22 µM
TGI (SW-620 [9]): 2.97 µM
GI50 (CAKI-1 [10]): 12.7 µM
TGI (CAKI-1 [10]): 32.0 µM
GI50 (RXF 393): 0.85 µM
TGI (RXF 393): 2.61 µM
GI50 (SN12C): 3.74 µM
TGI (SN12C): 14.8 µM
GI50 (BT-549): 1.23 µM
TGI (BT-549): 2.51 µM

C=C1C(=O)O[C@H]2[C@H]1CC/C(COC(=O)NCCCCCNC(=O)OC/C1=C/CC[C@@]3(C)O[C@H]3[C@H]3OC(=O)C(=C)[C@@H]3CC1)=C\CC[C@@]1(C)O[C@@H]21 [JVM 2-76, bis(((1aR,7aS,10aS,10bS,E)-1a-Methyl-8-methylene-9-oxo-1a,2,3,6,7,7a,8,9,10a,10b-decahydrooxireno[2′,3′:9,10]cyclodeca[1,2-b]furan-5-yl)methyl)pentane-1,5-diyldicarbamate]
GI50 (HL-60(TB)): 0.31 µM
TGI (HL-60(TB)): 1.71 µM
CC50 (HL-60(TB)): > 100 µM
GI50 (SNB-19; SNB-19): 3.97 µM
TGI (SNB-19; SNB-19): 19.0 µM
CC50 (SNB-19; read-out: LC50, SNB-19): 92.5 µM
GI50 (MDA-MB-435 [6]): 1.51 µM
TGI (MDA-MB-435 [6]): 3.32 µM
CC50 (MDA-MB-435 [6]; read-out: LC50): 7.3 µM
GI50 (UACC-257 [7]): 2.07 µM
TGI (UACC-257 [7]): 7.46 µM
CC50 (UACC-257 [7]; read-out: LC50): 42.4 µM
GI50 (UACC-62 [8]): 1.41 µM
TGI (UACC-62 [8]): 3.16 µM
CC50 (UACC-62 [8]; read-out: LC50): 7.04 µM
GI50 (SNB-75): 2.2 µM
TGI (SNB-75): 11.4 µM
CC50 (SNB-75; read-out: LC50): 33.8 µM
GI50 (HCT-116): 0.54 µM
TGI (HCT-116): 1.86 µM
CC50 (HCT-116; read-out: LC50): 4.56 µM
GI50 (SW-620 [9]): 0.43 µM
TGI (SW-620 [9]): 1.75 µM
CC50 (SW-620 [9]; read-out: LC50): 5.14 µM
GI50 (CAKI-1 [10]): 16.1 µM
TGI (CAKI-1 [10]): 33.1 µM
CC50 (CAKI-1 [10]; read-out: LC50): 68.1 µM
GI50 (RXF 393): 0.85 µM
TGI (RXF 393): 2.43 µM
CC50 (RXF 393; read-out: LC50): 6.35 µM
GI50 (SN12C): 2.49 µM
TGI (SN12C): 10.7 µM
CC50 (SN12C; read-out: LC50): 45.5 µM
GI50 (BT-549): 1 µM
TGI (BT-549): 2.23 µM
CC50 (BT-549; read-out: LC50): 4.96 µM
